According to EP2266530A1, “Oxazolidinones for cosmetic cutaneous use” (Laboratoires Expanscience, priority 2002, dated 2004):

Assays:
cellules de Langerhans = assay: Migration of freshly isolated, DNSB-sensitised Langerhans cells through Matrigel in a two-compartment culture chamber; conditions: for inhibition de la migration des CL induite par le DNSB (result in words): compound 1 µM
Description: Des suspensions de cellules épidermiques ont été obtenues par traitement enzymatique (0,05% trypsine, pendant 18h à +4°C) de fragments de peau humaine normale issus de chirurgie plastique. Les suspensions obtenues contiennent en moyenne 2 à 4% de CL. L'obtention de suspensions contenant en moyenne 70% de CL est basée sur le principe de la centrifugation sur gradient de densité (Lymphoprep™) et élimination des kératinocytes.
Le milieu de base choisi pour l'ensemble de l'étude a été le RPMI 1640 (Gibco BRL, France).
On a utilisé comme agent sensibilisateur le DNSB (Sigma Aldrich), forme soluble du DNCB (dinitro-chloro-benzène), solubilisé en RPMI-BSA et utilisé à la concentration de 50 µM.
Un système de chambre de culture à deux compartiments (Falcon, Becton Dickinson, France) a été utilisé. Le compartiment supérieur est séparé du compartiment inférieur par une membrane de porosité 8 µm, sur laquelle sont déposées 50 µg/cm^2 de Matrigel. La membrane est alors recouverte de protéines formant un film équivalent à une membrane basale (laminine, collagène IV, nidogène, entactine, héparane sulfate protéoglycanes). Les cellules reprises dans le milieu RPMI-BSA seul ou en présence des différents produits sont déposées dans le compartiment supérieur. Dans le compartiment inférieur, est ajouté du surnageant de culture de fibroblastes humains normaux. Après 18h d'incubation à 37°C, le nombre de cellules vivantes ayant traversé le Matrigel et se trouvant dans le compartiment inférieur est compté sous microscope (les CL sont facilement identifiables par leur forme dendritique). Chaque essai est réalisé en triplicate.
Dans l'expression des résultats, la capacité migratoire des CL contrôle (non traitées et non sensibilisées) est arbitrairement fixée à 1.

cellules dendritiques = assay: FITC-induced migration of dendritic cells from ear skin to draining lymph nodes in mice (flow cytometry); assay type: in vivo, souris
Excerpt: Le FITC (Fluorescéine isothiocyanate, Sigma, St. Louis, MO) a été dilué extemporanément dans un mélange acétone : dibutylphthalate (1:1).
L'oxazolidinone B et le LU105 (LU 105 est un inhibiteur de MMPs, correspondant à un extrait peptidique de lupin blanc commercialisé par la Société Expanscience sous le nom de marque Actimp 193®) ont été fournis par les "Laboratoires Expanscience", et formulés seuls ou en association dans un véhicule inerte compatible avec une application topique, tel que décrit à l'exemple 1 ci-dessus [oxazolidinone B (0,5%) ± LU105 (2%)]. Les différentes formulations ont été appliquées sur les oreilles de souris deux fois par jour pendant 4 jours consécutifs. Trois heures après la dernière application, 1,5% de FITC sont appliqués sur les deux oreilles (l'une traitée et l'autre non traitée (Contrôle)).
L'effet des deux molécules a été évalué in vivo chez la souris. La peau des deux oreilles est badigeonnée avec 1,5% FITC (2X5 µl). 24 h après, les souris sont sacrifiées et une suspension cellulaire est préparée à partir des ganglions auriculaires et cervicaux (ganglions drainants, ci-après dénommés GL) ou à partir des ganglions popliteaux (ganglions non drainants, contrôle négatif). Les tissus ont été découpés et les cellules sont séparées par filtration (filtre […], Falcon; Becton Dickinson), puis lavés. […]

Q: Which results are given for `O=[N+]([O-])c1ccc(S(=O)(=O)O)c([N+](=O)[O-])c1` [DNSB, reference compound]?
A: stimulation de la migration des CL par rapport aux cellules contrôle (cellules de Langerhans; Example 3, DNSB 50 µM alone): +113%; Index de migration (cellules de Langerhans; Example 4, cells sensitised with DNSB alone, control cells = 1): 1,78

Q: How did the “inhibition de la migration des CL induite par le DNSB (result in words)” value (cellules de Langerhans; Example 3) turn out when `CCCCCCCCCCCCC1COC(=O)N1` (centres unmarked) [oxazolidinone A, 4-dodécyl-oxazolidin-2-one] was run?
A: The value was “inhibent de manière significative”.

Q: Which “Inhibition de la migration en %” value (cellules dendritiques; 0,5% topical on mouse ears, twice daily for 4 days, FITC 1,5%, read 24 h later) does the source give for `CCCCCCCCCCCCC1NC(=O)OC1CCCCCCCCCCCC` (centres unmarked) [oxazolidinone B, 4,5-didodécyl-oxazolidin-2-one] here?
A: The value was 28%.

Q: What about the “inhibition de la migration des CD vers les GL (result in words)” value (cellules dendritiques; mice sensitised with FITC, oxazolidinone B alone) of the same compound?
A: Its value is “inhibe de manière significative”.

Q: And the “inhibition de la migration des CL induite par le DNSB (result in words)” value (cellules de Langerhans; Example 3)?
A: Its value is “inhibent de manière significative”.

Q: And the “inhibition de la migration des CL sensibilisées (result in words)” value (cellules de Langerhans; Example 4, tested separately)?
A: Its value is “inhibent de manière significative”.

Q: With `CCCCCCCCCCCCC1COC(=O)N1CCCCCCCCCCCC` (centres unmarked) [oxazolidinone C, 3,4-didodécyl-oxazolidin-2-one] as the compound, how does the “inhibition de la migration des CL induite par le DNSB (result in words)” value (cellules de Langerhans; Example 3) read?
A: Its value is “inhibent de manière significative”.
